Values of other authors as cited in patent publication US20050196503A1, “High-intensity sweetener-polyol compositions” (priority 2004, published 2005).
Residues, ends and D or L forms follow the SMILES beside them.

Conditions: for sweetness relative to sucrose: percent of the sweetness of sucrose; for Approximate sweetness (sucrose = 1): relative to sucrose, weight basis; for sweetness strength or sweetening potency, times that of sucrose: in terms of weight ratio

| Molecule | sweetness relative to sucrose [%] | Approximate sweetness (sucrose = 1) | sweetness strength or sweetening potency, times that of sucrose |
| --- | --- | --- | --- |
| OC[C@@H](O)[C@H](O)[C@@H](O)CO [Xylitol] | 100 | 1.0 |  |
| COC(=O)[C@H](Cc1ccccc1)NC(=O)[C@H](CC(=O)O)NCCC(C)(C)C [Neotame] |  | 8,000 | ~10,000 times |
| OC[C@H]1O[C@H](O[C@]2(CCl)O[C@H](CCl)[C@@H](O)[C@@H]2O)[C@H](O)[C@@H](O)[C@H]1Cl [Sucralose] |  | 600 |  |
| COC(=O)[C@H](Cc1ccccc1)NC(=O)[C@@H](N)CC(=O)O [Aspartame] (H-Asp-Phe-OMe) |  | 180 | about 180 times |
| Isomalt [Isomalt (platinit)] |  | 0.45-0.65 |  |
| OC[C@@H](O)[C@@H](O)[C@H](O)[C@H](O)CO [Mannitol] |  | 0.7 |  |
| OC[C@@H](O)[C@@H](O)CO [Erythritol] |  | 0.7 |  |
| OC[C@@H](O)[C@@H](O[C@@H]1O[C@H](CO)[C@H](O)[C@H](O)[C@H]1O)[C@H](O)[C@@H](O)CO [Lactitol] |  | 0.4 |  |
| O=C1NS(=O)(=O)c2ccccc21 [Saccharin] |  | 300 |  |
| OC[C@@H](O)[C@@H](O[C@H]1O[C@H](CO)[C@@H](O)[C@H](O)[C@H]1O)[C@H](O)[C@@H](O)CO [Malitol, maltitol] | 90 | 0.9 |  |
| OC[C@@H](O)[C@@H](O)[C@H](O)[C@@H](O)CO [Sorbitol] |  | 0.6 |  |
| CC1=CC(=O)[N-]S(=O)(=O)O1.[K+] [Acesulfame-K] |  | 200 | about 200 times |
